Measured values: patent publication US20240218022A1, “ANTI-VISTA MACROCYCLIC PEPTIDES AND COMPOSITIONS” (BRISTOL-MYERS SQUIBB COMPANY, priority 2022, published 2024)
Where two headings read alike, the source gives them in different places. Starred links: 1 amine or outer side, 2 acyl side, 3 side chain; linkers in the order of their positions; H or OH if unused. Positions of bridges follow the written chain, without caps; N, C: chain ends. Non-standard residues stand in square brackets, D forms with d. Residues, ends and D or L forms follow the SMILES beside them. γGlu = O=C(O)[C@H](CCC(=O)[*:2])N[*:1]; βAsp = O=C(O)[C@H](CC(=O)[*:2])N[*:1]; NMeL = CN[C@@H](CC(C)C)C(=O)O; Ahp(2) = CCCCC[C@H](N)C(=O)O; NMeNle = CCCC[C@H](NC)C(=O)O; Tle = CC(C)(C)[C@H](N)C(=O)O; NMeV = CN[C@H](C(=O)O)C(C)C; NHexGly = CCCCCCNCC(=O)O; Nle = CCCC[C@H](N)C(=O)O; Orn = NCCC[C@H](N)C(=O)O; Aun = NCCCCCCCCCCC(=O)O; AEEA = NCCOCCOCC(=O)O

Molecular target: T1, mouse VISTA (mVISTA) (Mus musculus, UniProt Q9D659)
T1 construct: expressed in transfected cells; host or cells: Human embryonic kidney 293T cells
T1 sequence (Q9D659 33-308): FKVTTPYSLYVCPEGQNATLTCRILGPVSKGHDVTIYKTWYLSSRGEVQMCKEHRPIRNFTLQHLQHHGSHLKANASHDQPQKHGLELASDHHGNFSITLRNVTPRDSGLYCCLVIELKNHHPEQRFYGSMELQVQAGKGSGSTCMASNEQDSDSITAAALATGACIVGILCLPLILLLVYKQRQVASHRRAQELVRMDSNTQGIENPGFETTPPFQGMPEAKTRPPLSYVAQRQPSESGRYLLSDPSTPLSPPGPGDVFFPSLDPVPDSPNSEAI
Experiment: Cell-Based Binding High-Content Assay For mVISTA (HC CBA mVISTA)
How it was run: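 293T cells expressing mouse VISTA, with compounds added either after seeding ("no wash") or before seeding and then washed out after 1 h. Biotinylated peptide 2 nM for 30 min at room temperature, then detection with Alexa 647–streptavidin. After fixation with Hoechst stain, plates were high-content imaged; IC50 from four-parameter logistic fit.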

Row | Compound | IC50 (cell-based binding high-content assay, mVISTA, read-out: HC CBA miPr ISTA IC50) | IC50 (read-out: HC CBA mVISTA IC50)
1 | CCCCCCN1CC(=O)N[C@@H](Cc2ccc(O)cc2)C(=O)N[C@@H](CC(C)C)C(=O)N[C@@H](CC(N)=O)C(=O)N[C@@H](CCCN)C(=O)N(C)[C@@H](CC(C)C)C(=O)N[C@@H](CCCCC)C(=O)N2CCC[C@H]2C(=O)N[C@@H](C(C)(C)C)C(=O)N[C@@H](CO)C(=O)N[C@H](C(=O)N[C@@H](CC(=O)NCCOCCOCC(=O)N[C@@H](CC(=O)O)C(=O)NCCOCCOCC(=O)NCCCCCCCCCCC(=O)O)C(=O)O)CSCC(=O)N[C@@H](Cc2ccccc2)C(=O)N[C@@H](Cc2ccc(O)cc2)C(=O)N[C@@H](CC(=O)O)C1=O [Example 2000] ({CH2CO}-FYD[NHexGly]YLN[Orn][NMeL][Ahp(2)]P[Tle]SC[βAsp][AEEA]D[AEEA][Aun]-OH; thioether N-14) | 16.1 nM | 
2 | CCCCCCN1CC(=O)N[C@@H](Cc2ccc(O)cc2)C(=O)N[C@@H](CCCCC)C(=O)N[C@@H](CC(N)=O)C(=O)N[C@@H](CCCNC(=N)N)C(=O)N[C@@H](Cc2c[nH]c3ccccc23)C(=O)N[C@@H](CCCCC)C(=O)N2CCC[C@H]2C(=O)N[C@@H](C(C)C)C(=O)N[C@@H](CO)C(=O)N[C@H](C(=O)N[C@@H](CCC(=O)NCCCCCCCCCCC(=O)O)C(=O)O)CSCC(=O)N[C@@H](Cc2ccccc2)C(=O)N[C@@H](Cc2ccc(O)cc2)C(=O)N[C@@H](CC(=O)O)C1=O [Example 2129] ({CH2CO}-FYD[NHexGly]Y[Ahp(2)]NRW[Ahp(2)]PVSC[γGlu][Aun]-OH; thioether N-14) |  | 16.6 nM
3 | CCCCCCN1CC(=O)N[C@@H](Cc2ccc(O)cc2)C(=O)N[C@@H](CC(C)C)C(=O)N[C@@H](CC(N)=O)C(=O)N[C@@H](CCCNC(=N)N)C(=O)N(C)[C@@H](CCCC)C(=O)N[C@@H](CCCCC)C(=O)N2CCC[C@H]2C(=O)N[C@@H](C(C)(C)C)C(=O)N[C@@H](CO)C(=O)N[C@H](C(=O)N[C@@H](CCC(=O)NCCCCCCCCCCC(=O)O)C(=O)O)CSCC(=O)N[C@@H](Cc2ccccc2)C(=O)N[C@@H](Cc2c[nH]c3ccccc23)C(=O)N[C@@H](CC(=O)O)C1=O [Example 2131] ({CH2CO}-FWD[NHexGly]YLNR[NMeNle][Ahp(2)]P[Tle]SC[γGlu][Aun]-OH; thioether N-14) |  | 38 nM
4 | CCCCCCN1CC(=O)N[C@@H](Cc2ccc(O)cc2)C(=O)N[C@@H](CC(C)C)C(=O)N[C@@H](CC(N)=O)C(=O)N[C@@H](CCCN)C(=O)N(C)[C@@H](CCCC)C(=O)N[C@@H](CCCCC)C(=O)N2CCC[C@H]2C(=O)N[C@@H](C(C)(C)C)C(=O)N[C@@H](CO)C(=O)N[C@H](C(=O)N[C@@H](CCC(=O)NCCCCCCCCCCC(=O)O)C(=O)O)CSCC(=O)N[C@@H](Cc2ccccc2)C(=O)N[C@@H](Cc2ccc(O)cc2)C(=O)N[C@@H](CC(=O)O)C1=O [Example 2132] ({CH2CO}-FYD[NHexGly]YLN[Orn][NMeNle][Ahp(2)]P[Tle]SC[γGlu][Aun]-OH; thioether N-14) |  | 23.5 nM
5 | CCCCCCN1CC(=O)N[C@@H](Cc2ccc(O)cc2)C(=O)N[C@@H](CC(C)C)C(=O)N[C@@H](CC(N)=O)C(=O)N[C@@H](CCCN)C(=O)N(C)[C@@H](CCCC)C(=O)N[C@@H](CCCCC)C(=O)N2CCC[C@H]2C(=O)N[C@@H](C(C)(C)C)C(=O)N[C@@H](CO)C(=O)N[C@H](C(=O)N[C@@H](CCC(=O)NCCCCCCCCCCC(=O)O)C(=O)O)CSCC(=O)N[C@@H](Cc2ccccc2)C(=O)N[C@@H](Cc2c[nH]c3ccccc23)C(=O)N[C@@H](CC(=O)O)C1=O [Example 2134] ({CH2CO}-FWD[NHexGly]YLN[Orn][NMeNle][Ahp(2)]P[Tle]SC[γGlu][Aun]-OH; thioether N-14) |  | 21.7 nM
6 | CCCCCCN1CC(=O)N[C@@H](Cc2ccc(O)cc2)C(=O)N[C@@H](CC(C)C)C(=O)N[C@@H](CC(N)=O)C(=O)N[C@@H](CCCNC(=N)N)C(=O)N(C)[C@@H](CCCC)C(=O)N[C@@H](CCCCC)C(=O)N2CCC[C@H]2C(=O)N[C@@H](C(C)(C)C)C(=O)N[C@@H](CO)C(=O)N[C@H](C(=O)N[C@@H](CCC(=O)NCCCCCCCCCCC(=O)O)C(=O)O)CSCC(=O)N[C@@H](Cc2ccccc2)C(=O)N[C@@H](Cc2ccc(O)cc2)C(=O)N[C@@H](CC(=O)O)C1=O [Example 2136] ({CH2CO}-FYD[NHexGly]YLNR[NMeNle][Ahp(2)]P[Tle]SC[γGlu][Aun]-OH; thioether N-14) |  | 19.8 nM
7 | CCCCCCN1CC(=O)N[C@@H](Cc2ccc(O)cc2)C(=O)N[C@@H](CC(C)C)C(=O)N[C@@H](CC(N)=O)C(=O)N[C@@H](CCCN)C(=O)N(C)[C@@H](C(C)C)C(=O)N[C@@H](CCCCC)C(=O)N2CCC[C@H]2C(=O)N[C@@H](C(C)(C)C)C(=O)N[C@@H](CO)C(=O)N[C@H](C(=O)N[C@@H](CCC(=O)NCCCCCCCCCCC(=O)O)C(=O)O)CSCC(=O)N[C@@H](Cc2ccccc2)C(=O)N[C@@H](Cc2ccc(O)cc2)C(=O)N[C@@H](CC(=O)O)C1=O [Example 2137] ({CH2CO}-FYD[NHexGly]YLN[Orn][NMeV][Ahp(2)]P[Tle]SC[γGlu][Aun]-OH; thioether N-14) |  | 18 nM
8 | CCCCCCN1CC(=O)N[C@@H](Cc2ccc(O)cc2)C(=O)N[C@@H](CC(C)C)C(=O)N[C@@H](CC(N)=O)C(=O)N[C@@H](CCCN)C(=O)N(C)[C@@H](CC(C)C)C(=O)N[C@@H](CCCCC)C(=O)N2CCC[C@H]2C(=O)N[C@@H](C(C)(C)C)C(=O)N[C@@H](CO)C(=O)N[C@H](C(=O)N[C@@H](CCC(=O)NCCCCCCCCCCC(=O)O)C(=O)O)CSCC(=O)N[C@@H](Cc2ccccc2)C(=O)N[C@@H](Cc2ccc(O)cc2)C(=O)N[C@@H](CC(=O)O)C1=O [Example 2138] ({CH2CO}-FYD[NHexGly]YLN[Orn][NMeL][Ahp(2)]P[Tle]SC[γGlu][Aun]-OH; thioether N-14) |  | 33 nM
9 | CCCCCCN1CC(=O)N[C@@H](Cc2ccc(O)cc2)C(=O)N[C@@H](CCCCN)C(=O)N[C@@H](CC(N)=O)C(=O)N[C@@H](CCCN)C(=O)N(C)[C@@H](CCCC)C(=O)N[C@@H](CCCCC)C(=O)N2CCC[C@H]2C(=O)N[C@@H](C(C)(C)C)C(=O)N[C@@H](CO)C(=O)N[C@H](C(=O)N[C@@H](CCC(=O)NCCCCCCCCCCC(=O)O)C(=O)O)CSCC(=O)N[C@@H](Cc2ccccc2)C(=O)N[C@@H](Cc2ccc(O)cc2)C(=O)N[C@@H](CC(=O)O)C1=O [Example 2139] ({CH2CO}-FYD[NHexGly]YKN[Orn][NMeNle][Ahp(2)]P[Tle]SC[γGlu][Aun]-OH; thioether N-14) |  | 45.7 nM

More lines, now with the values ahead:

Row | IC50 (cell-based binding high-content assay, mVISTA, read-out: HC CBA miPr ISTA IC50) | IC50 (read-out: HC CBA mVISTA IC50) | Compound
10 |  | 15.9 nM | CCCCCCN1CC(=O)N[C@@H](Cc2ccc(O)cc2)C(=O)N[C@@H](CC(C)C)C(=O)N[C@@H](CC(N)=O)C(=O)N[C@@H](CCCNC(=N)N)C(=O)N[C@@H](CC(C)C)C(=O)N[C@@H](CCCCC)C(=O)N2CCC[C@H]2C(=O)N[C@@H](C(C)C)C(=O)N[C@@H](CO)C(=O)N[C@H](C(=O)N[C@@H](CCC(=O)NCCCCCCCCCCC(=O)O)C(=O)O)CSCC(=O)N[C@@H](Cc2ccccc2)C(=O)N[C@@H](Cc2ccc(O)cc2)C(=O)N[C@@H](CC(=O)O)C1=O [Example 2127] ({CH2CO}-FYD[NHexGly]YLNRL[Ahp(2)]PVSC[γGlu][Aun]-OH; thioether N-14)
11 |  | 30.1 nM | CCCCCCN1CC(=O)N[C@@H](Cc2ccc(O)cc2)C(=O)N[C@@H](CC(C)C)C(=O)NCC(=O)N[C@@H](CCCNC(=N)N)C(=O)N[C@@H](CC(C)C)C(=O)N[C@@H](CCCCC)C(=O)N2CCC[C@H]2C(=O)N[C@@H](C(C)C)C(=O)N[C@@H](CO)C(=O)N[C@H](C(=O)N[C@@H](CCC(=O)NCCCCCCCCCCC(=O)O)C(=O)O)CSCC(=O)N[C@@H](Cc2ccccc2)C(=O)N[C@@H](Cc2ccc(O)cc2)C(=O)N[C@@H](CC(=O)O)C1=O [Example 2128] ({CH2CO}-FYD[NHexGly]YLGRL[Ahp(2)]PVSC[γGlu][Aun]-OH; thioether N-14)
12 |  | 37.2 nM | CCCCCCN1CC(=O)N[C@@H](Cc2ccc(O)cc2)C(=O)N[C@@H](CCCC)C(=O)NCC(=O)N[C@@H](CCCNC(=N)N)C(=O)N[C@@H](CC(C)C)C(=O)N[C@@H](CCCCC)C(=O)N2CCC[C@H]2C(=O)N[C@@H](C(C)C)C(=O)N[C@@H](CC(N)=O)C(=O)N[C@H](C(=O)N[C@@H](CCC(=O)NCCCCCCCCCCC(=O)O)C(=O)O)CSCC(=O)N[C@@H](Cc2ccccc2)C(=O)N[C@@H](Cc2ccc(O)cc2)C(=O)N[C@@H](CC(=O)O)C1=O [Example 2130] ({CH2CO}-FYD[NHexGly]Y[Nle]GRL[Ahp(2)]PVNC[γGlu][Aun]-OH; thioether N-14)
13 |  | 24 nM | CCCCCCN1CC(=O)N[C@@H](Cc2ccc(O)cc2)C(=O)N[C@@H](CC(C)C)C(=O)N[C@@H](CC(N)=O)C(=O)N[C@@H](CCCNC(=N)N)C(=O)N(C)[C@@H](C(C)C)C(=O)N[C@@H](CCCCC)C(=O)N2CCC[C@H]2C(=O)N[C@@H](C(C)(C)C)C(=O)N[C@@H](CO)C(=O)N[C@H](C(=O)N[C@@H](CCC(=O)NCCCCCCCCCCC(=O)O)C(=O)O)CSCC(=O)N[C@@H](Cc2ccccc2)C(=O)N[C@@H](Cc2ccc(O)cc2)C(=O)N[C@@H](CC(=O)O)C1=O [Example 2133] ({CH2CO}-FYD[NHexGly]YLNR[NMeV][Ahp(2)]P[Tle]SC[γGlu][Aun]-OH; thioether N-14)
14 |  | 31 nM | CCCCCCN1CC(=O)N[C@@H](Cc2ccc(O)cc2)C(=O)N[C@@H](CC(C)C)C(=O)N[C@@H](CC(N)=O)C(=O)N[C@@H](CCCNC(=N)N)C(=O)N(C)[C@@H](CC(C)C)C(=O)N[C@@H](CCCCC)C(=O)N2CCC[C@H]2C(=O)N[C@@H](C(C)(C)C)C(=O)N[C@@H](CO)C(=O)N[C@H](C(=O)N[C@@H](CCC(=O)NCCCCCCCCCCC(=O)O)C(=O)O)CSCC(=O)N[C@@H](Cc2ccccc2)C(=O)N[C@@H](Cc2ccc(O)cc2)C(=O)N[C@@H](CC(=O)O)C1=O [Example 2135] ({CH2CO}-FYD[NHexGly]YLNR[NMeL][Ahp(2)]P[Tle]SC[γGlu][Aun]-OH; thioether N-14)
